Molecular target: T1, mouse Nurr1 full-length (Mus musculus, UniProt Q06219)
T1 construct: pcDNA3.1 Myc/His mouse Nurr1 full-length construct; expressed in transfected cells; host or cells: SK-N-BE2C
Assay: Luciferase reporter gene assay for Nurr1 transcriptional activity in SK-N-BE2C cells
Type: cell-based
Settings: relative activity over control (luminescence value; 1.0)
Description: To investigate whether the PG analogs of the present invention activate Nurr1 function, the inventors of the present invention employed an reporter gene assay and examined the transcriptional activation as described in Kim, C.-H. et al., Proceedings of the National Academy of Sciences 112, 8756-8761, doi:10.1073/pnas.1509742112 (2015).
The gene assay was performed by Luciferase assay as described below:
[Protocol for Luciferase Assay to Determine Nurr1 Transcriptional Activity] • 1. SK-N-BE2C cells were maintained in HyClone™ DMEM High Glucose (Cat. No.: SH30022.01) with 10% (v/v) fetal bovine serum (FBS), 100 units/ml penicillin and 100 μg/ml streptomycin. • 2. Seed 1.5×10^5 SK-N-BE2C cells/well into a 24-well plate and incubate at 37° C. with 5% CO2 for 24 hours. • 3. After 24 hours, transfect cells with pcDNA3.1 Myc/His mouse Nurr1 full-length construct, firefly luciferase reporter vector (pGL-3 basic from Promega, Cat. No.:E1751; with appropriate response element cloned in) and Renilla luciferase control vector (pRL-null from Promega, Cat. No.:E2271) in the ratio of 8:1:1 (Nurr1: firefly: renilla) or 400 ng, 50 ng and 50 ng respectively, amounting to a total of 500 ng in the 50 μl transfection mix for 1 well. • 4. To make the transfection mix, first prepare the DNA with P3000 reagent by adding the appropriate amount of DNA with 1 μl P3000 reagent and top up with Opti-MEM® I Reduced-Serum Media (from ThermoFisher Scientific [Cat. No.: 31985070]) to 25 μl. Incubate for 5 minutes at room temperature. • 5. Make another mix consisting of 1 μl Lipofectamine 3000 reagent with 24 μl Opti-MEM® I Reduced-Serum Media per well. Add this Lipofectamine mix to the previous DNA-P3000 mix (after the previous 5 minute incubation) and incubate them for 15 minutes at room temperature. [P3000:Lipofectamine=1:1]. • 6. In the meantime, change the media in the sample wells with fresh DMEM media without antibiotics. • 7. After 15 minutes incubation, add the 50 μl transfection mix into each well and incubate the plate for 24 hours at 37° C. with 5% CO2. • 8. After 24 hours, change the media to normal DMEM media with antibiotics and add various doses of compounds into designated wells and incubate the plate for another 24 hours at 37° C. with 5% CO2. • 9. Following the 24-hour incubation period, luciferase assay can be conducted using Dual-Glo Luciferase® kit from Promega (Cat. No.: E2920). • 10. Lyse each tested wells for 15 minutes with 75 μl of passive lysis buffer provided in the Dual-Luciferase® kit from Promega (Cat. No.: E1910). [Alternatively, add 75 μl of PBS and 75 μl of Dual-Glo® Luciferase Reagent and incubate for 10 minutes at room temperature (cover the plate with foil to protect from light). Transfer the entire sample in each well to a Greiner CELLSTAR® 96-well white polystyrene plate then proceed to step 13]. • 11. After 15 minutes, transfer each lysed sample to a Greiner CELLSTAR® 96-well white polystyrene plate (Cat. No.:655083). • 12. To each well of lysed cells, add 75 μl of Dual-Glo® Luciferase Reagent and incubate for 10 minutes at room temperature (cover the plate with foil to protect from light). • 13. Set the measurement with a 10-second integrated measurement period. • 14. Add 75 μl of Dual-Glo® Stop & Glo® reagent into each well and incubate for 10 minutes before commencing with the same parameters as before to determine the RLU for the Renilla luciferase. • 15. The averaged reading for wells corresponding to non-transfected cells can be subtracted from each RLU reading and duplicate/triplicate readings can then be averaged. Normalization of the luminescence reading for each well can be carried out by dividing the firefly luciferase RLU with the corresponding Renilla luciferase RLU. Each drug-treated well can then be normalized against the averaged DMSO-treated well reading.

T1 sequence (Q06219 whole entry): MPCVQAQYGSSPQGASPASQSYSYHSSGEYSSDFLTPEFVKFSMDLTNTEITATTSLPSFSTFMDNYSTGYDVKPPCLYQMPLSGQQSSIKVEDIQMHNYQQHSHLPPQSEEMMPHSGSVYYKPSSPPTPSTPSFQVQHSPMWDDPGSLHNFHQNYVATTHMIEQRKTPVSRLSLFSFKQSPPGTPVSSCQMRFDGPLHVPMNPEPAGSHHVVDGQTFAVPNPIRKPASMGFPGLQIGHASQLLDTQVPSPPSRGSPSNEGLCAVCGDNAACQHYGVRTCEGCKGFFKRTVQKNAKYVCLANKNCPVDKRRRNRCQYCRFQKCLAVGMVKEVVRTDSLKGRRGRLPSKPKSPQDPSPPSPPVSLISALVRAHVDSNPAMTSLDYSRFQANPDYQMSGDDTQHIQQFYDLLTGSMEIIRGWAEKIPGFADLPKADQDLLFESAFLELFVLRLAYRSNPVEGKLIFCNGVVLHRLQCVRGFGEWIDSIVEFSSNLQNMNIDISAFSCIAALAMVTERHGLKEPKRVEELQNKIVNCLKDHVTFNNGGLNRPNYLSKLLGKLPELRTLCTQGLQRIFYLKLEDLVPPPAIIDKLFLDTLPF

Fold activity (1 uM)	SMILES
B (1.1~2.0 (moderate))	CCCCC[C@H](O)/C=C/[C@H]1C(=O)C[C@H](O)[C@@H]1C/C=C\CCCC(=O)O [Compound 64, Prostaglandin D2]
C (below 1.0 (low activity))	CCCCC[C@H](O)/C=C/[C@H]1C(=O)C[C@H](O)[C@@H]1C/C=C\CCCC(=O)NCCO [Compound 72, Prostaglandin D2 Ethanolamide]
A (above 2.0 (high activity))	CCCCC[C@H](O)/C=C/[C@H]1[C@H](O)CC(=O)[C@@H]1CCCCCCC(=O)Nc1ccc2cccnc2c1 [Compound 8, 7-((1R,2R,3R)-3-hydroxy-2-((S,E)-3-hydroxyoct-1-enyl)-5-oxocyclopentyl)-N-(quinolin-7-yl)heptanamide]
A (above 2.0 (high activity))	CCCCC[C@H](O)CC[C@H]1[C@H](O)CC(=O)[C@@H]1CCCCCCC(=O)O [Compound 58, 13,14-dihydro Prostaglandin E1]
B (1.1~2.0 (moderate))	CCCCC[C@@](C)(O)/C=C/[C@H]1[C@H](O)CC(=O)[C@@H]1C/C=C\CCCC(=O)O [Compound 53, 15(R)-15-methyl Prostaglandin E2]
A (above 2.0 (high activity))	CCCCC[C@H](O)/C=C/[C@H]1[C@H](O)CC(=O)[C@@H]1C/C=C\CCCC(=O)O [Compound 20, Prostaglandin E2]
B (1.1~2.0 (moderate))	CCCC1([C@H](O)C/C=C/[C@H]2[C@H](O)CC(=O)[C@@H]2CCCCCCC(=O)OC)CCC1 [Compound 35, (R)-Butaprost]
A (above 2.0 (high activity))	CCCCC[C@H](O)/C=C/[C@H]1[C@H](O)CC(=O)[C@@H]1CCCCCCC(=O)Nc1ccc2nccnc2c1 [Compound 7, 7-((1R,2R,3R)-3-hydroxy-2-((S,E)-3-hydroxyoct-1-enyl)-5-oxocyclopentyl)-N-(quinoxalin-6-yl)heptanamide]
B (1.1~2.0 (moderate))	CCCCCC(O)/C=C/C1C(=O)CC(O)C1C/C=C\CCCC(=O)OCC(O)CO (stereo not shown) [Compound 17, Prostaglandin D2-1-glyceryl ester]
A (above 2.0 (high activity))	CCCCC(C)(O)C/C=C/[C@H]1[C@H](O)CC(=O)[C@@H]1CCCCCCC(=O)Oc1ccc(NC(=O)c2ccccc2)cc1 (stereo partly drawn) [Compound 2, 4-Benzamidophenyl-7-((1R,2R,3R)-3-hydroxy-2-((E)-4-hydroxy-4-methyloct-1-en-1-yl)-5-oxocyclopentyl)heptanoate]
B (1.1~2.0 (moderate))	CC(C)OC(=O)CCC/C=C\C[C@@H]1[C@@H](CC[C@@H](O)CCc2ccccc2)[C@H](O)C[C@@H]1O [Compound 91, Latanoprost]
A (above 2.0 (high activity))	CCCCC[C@H](O)/C=C/[C@H]1[C@H](O)CC(=O)[C@H]1CCCCCCC(=O)O [Compound 50, 8-iso Prostaglandin E1]
A (above 2.0 (high activity))	CCCCC(C)(O)C/C=C/[C@H]1[C@H](O)CC(=O)[C@@H]1CCCCCCC(=O)NOc1ccccc1 (stereo partly drawn) [Compound 10, 7-((1R,2R,3R)-3-hydroxy-2-((E)-4-hydroxy-4-methyloct-1-enyl)-5-oxocyclopentyl)-N-phenoxyheptanamide]
C (below 1.0 (low activity))	O=C(O)CCCCC(=O)CC[C@H]1[C@H](O)CC(=O)[C@@H]1CCC(=O)O [Compound 46, tetranor-PGEM]
A (above 2.0 (high activity))	CCCCC[C@H](O)/C=C/[C@H]1[C@H](O)CC(=O)[C@H]1C/C=C\CCCC(=O)OC(C)C [Compound 76, 8-iso Prostaglandin E2 isopropyl ester]
B (1.1~2.0 (moderate))	CCCCCC(=O)/C=C/[C@H]1[C@H](O)CC(=O)[C@@H]1C/C=C\CCCC(=O)O [Compound 45, 15-keto Prostaglandin E2]
B (1.1~2.0 (moderate))	O=C(O)CCC/C=C\C[C@H]1[C@@H](O)CC(=O)[C@@H]1/C=C/[C@@H](O)COc1cccc(C(F)(F)F)c1 [Compound 23, 11-keto Fluprostenol]
A (above 2.0 (high activity))	CCCCC[C@H](O)/C=C/[C@H]1[C@H](O)CC(=O)[C@@H]1CCCCCCC(=O)Oc1ccc(NC(=O)c2cc(F)cc(F)c2)cc1 [Compound 13, 4-(3,5-difluorobenzamido)phenyl 7-((1R,2R,3R)-3-hydroxy-2-((S,E)-3-hydroxyoct-1-enyl)-5-oxocyclopentyl)heptanoate]
C (below 1.0 (low activity))	O=C(CCC/C=C\C[C@@H]1[C@@H](CC[C@@H](O)CCc2ccccc2)[C@H](O)C[C@@H]1O)OCCCCO[N+](=O)[O-] [Compound 95, Latanoprostene bunod]
A (above 2.0 (high activity))	CCCCC[C@H](O)/C=C/[C@H]1[C@H](O)CC(=O)[C@@H]1CCCCCCC(=O)Nc1ccc(Cl)cc1 [Compound 5, N-(4-chlorophenyl)-7-((1R,2R,3R)-3-hydroxy-2-((S,E)-3-hydroxyoct-1-enyl)-5-oxocyclopentyl)heptanamide]
A (above 2.0 (high activity))	CCCCC[C@H](O)/C=C/[C@H]1[C@H](O)CC(=O)[C@@H]1CCCCCCC(=O)NCCO [Compound 18, Prostaglandin E1 Ethanolamide]
A (above 2.0 (high activity))	CCCCC(C)(C)[C@H](O)/C=C/[C@H]1[C@H](O)CC(=O)[C@@H]1C/C=C\CCCC(=O)O [Compound 69, 16,16-dimethyl Prostaglandin E2]
C (below 1.0 (low activity))	CCCCC[C@@](C)(O)/C=C/[C@H]1C(=O)C[C@H](O)[C@@H]1C/C=C\CCCC(=O)O [Compound 49, 15(R)-15-methyl Prostaglandin D2]
B (1.1~2.0 (moderate))	CCCCC[C@H](O)/C=C/[C@H]1[C@H](O)CC(=O)[C@@H]1CCCCCCC(=O)NCCO [Compound 88, Alprostadil Ethanolamide]
A (above 2.0 (high activity))	CCCCC[C@H](O)/C=C/[C@H]1[C@H](O)CC(=O)[C@@H]1CCCCCCC(=O)Oc1cc(OC)c(OC)c(OC)c1 [Compound 14, 3,4,5-trimethoxyphenyl 7-((1R,2R,3R)-3-hydroxy-2-((S,E)-3-hydroxyoct-1-enyl)-5-oxocyclopentyl)heptanoate]
A (above 2.0 (high activity))	CCCCC[C@H](O)/C=C/[C@H]1[C@H](O)CC(=O)[C@@H]1CCCCCCC(=O)Nc1ccccc1 [Compound 4, 7-((1R,2R,3R)-3-hydroxy-2-((S,E)-3-hydroxyoct-1-enyl)-5-oxocyclopentyl)-N-phenylheptanamide]
A (above 2.0 (high activity))	CCCCC[C@H](O)/C=C/[C@H]1[C@H](O)CC(=O)[C@@H]1CCCCCCC(=O)O [Compound 73, Prostaglandin E1]
C (below 1.0 (low activity))	CCCCC[C@H](O)/C=C/[C@H]1C(=O)C[C@H](O)[C@@H]1C/C=C\CCCC(=O)OC [Compound 55, Prostaglandin D2 methyl ester]
C (below 1.0 (low activity))	CCCCC(C)(O)C/C=C/[C@H]1[C@@H](O)CC(=O)[C@@H]1CCCCCCC(=O)OC (stereo partly drawn) [Compound 81, 11β-Misoprostol]
A (above 2.0 (high activity))	CCCCC[C@@H](O)/C=C/[C@H]1C(=O)C[C@H](O)[C@@H]1C/C=C\CCCC(=O)O [Compound 16, 15(R)-Prostaglandin D2]

SMILES	Fold activity (1 uM)
CCCCC[C@H](O)/C=C/[C@H]1[C@H](O)CC(=O)[C@@H]1C/C=C\CCCC(=O)NCCCCCNC(=O)CCCC[C@H]1SC[C@@H]2NC(=O)N[C@@H]21 [Compound 39, Prostaglandin E2-biotin]	B (1.1~2.0 (moderate))

From patent US20210139435A1, “PROSTAGLANDIN ANALOGS AND USES THEREOF” (Lifex Biolabs, Inc., priority 2019, published 2021)
